Assay results from patent US20080228069A1, “Novel Differential Imaging Method” (MEDIPHYSICS, INC., priority 2003, published 2008).

Experiments:
[1] = cited from earlier work
[2] = tested on: SK—N—SH human neuroblastoma cells; details: over activity range; cited from earlier work
[3] = tested on: myocardial uptake of ^123I mIBG; assay: ^123I mIBG imaging with and without amitryptaline; assay type: in vivo, human
Protocol: 4 patients with movement disorders and aged between 66 and 75 were selected for this study. Neurological examination raised the differential diagnosis between essential tremor and Parkinson's disease. Prior to the study, none of the patients was taking any medication known to interfere with mIBG uptake. In all patients two ^123I mIBG scans were performed, one of which was performed after administration of a single oral dose of 25 mg amitryptaline one hour prior to ^123I mIBG administration. The imaging protocol was carried out for both scans as described in the following paragraphs.
The patients were treated with 200-500 mg of potassium perchlorate 30 minutes before injection of ^123I mIBG. […]
Anterior planar images of the thorax were obtained at 15 minutes and at 4 hours after ^123I mIBG injection with the subject in a supine position. The gamma camera (GE Millenium) was equipped with a low-energy, parallel-hole, general purpose collimator, and a 20% energy window on 159 KeV if ^123I is used.
SPECT was performed with collection of 32 projections of 30-60 seconds each, acquired over 180° orbit, with 3°-6° angle interval in a 64×64 matrix starting in the 45° right anterior oblique projection and finishing in the 45° left posterior oblique projection.
Studies were reconstructed using a Butterworth filtered backprojection technique. Three tomographic images were obtained from the SPECT study, i.e. vertical long axis slices, short axis slices, and horizontal long axis slices. Bull's eye polar map was generated from the apical to the basal short axis slices to show relative tracer distribution in the myocardium. Reconstruction was performed without attenuation and scatter correction.
The parameters used for quantification of myocardial ^123I-mIBG activity were heart to mediastinum ratio (HMR) and myocardial washout rate (WR). […] The WR is calculated by dividing the product of […] by myocardial counts at 15 minutes and multiplying by 100. […]

| Structure (SMILES) | uptake in mouse heart and adrenals [1] | percent binding to SK—N—SH human neuroblastoma cells [2] | myocardial uptake of ^123I mIBG when amitryptaline was administered before ^123I mIBG ([3]; FIG. 3, two of the four subjects, single oral dose of 25 mg amitryptaline one hour prior to ^123I mIBG) | difference in the myocardial uptake of ^123I mIBG following administration of amitryptaline ([3]; FIG. 4, the other two subjects, single oral dose of 25 mg amitryptaline one hour prior to ^123I mIBG) | uptake of ^123I mIBG in the stress image ([3]; half of the patients imaged (4 patients), adrenergic interfering agent amitryptaline) |
| --- | --- | --- | --- | --- | --- |
| NC(N)=NCc1ccc(F)c(I)c1 [^18F-FIBG] | Specific and high uptake | remained constant over a 3-log activity range |  |  |  |
| CN(C)CCC=C1c2ccccc2CCc2ccccc21 [amitryptaline] |  |  | marked decrease | no notable difference | Reduced uptake |
